Test results published in publication PMC4805251, “Novel Antimicrobial Peptides EeCentrocins 1, 2 and EeStrongylocin 2 from the Edible Sea Urchin Echinus esculentus Have 6-Br-Trp Post-Translational Modifications” (PLoS ONE, 2016).
Several values for one entry are separate records, joined by “and”; a condition that tells them apart may be missing. Equal values may be shown once. Read-outs that look alike come from different tables or passages of the source. Ends that are not written are not given here.

Assays:
Format in all cases: cell-based
human red blood cells = assay: Haemolytic activity assay; conditions: human red blood cells in PBS, 1 h at 37°C, absorbance at 550 nm, 0.05% Triton X-100 = 100%, duplicates
Method: Synthesised peptide analogues of EeCentrocin 1 and 2 were screened for eukaryotic cell-toxicity with a haemolytic activity assay using human red blood cells as described previously. The assay was performed on 96-well U-shaped microtiter plates (Nagle Nunc) with 50 μl peptide sample, 40 μl phosphate-buffered saline (PBS) and 10 μl red blood cells. The final peptide concentrations ranged from 100 to 0.1 μM in two-fold serial dilutions. After one hour of incubation at 37°C in a shaker, the plate was centrifuged at 200 g for 5 min and the supernatants (60 μl) were carefully transferred to a new flat-bottomed polycarbonate microtiter plate (Nagle Nunc) and absorbance at 550 nm was measured on a Synergy H1 multimode reader (BioTek, VT, USA). Cell suspension added 0.05% Triton X-100 (Sigma-Aldrich, MO, USA) in PBS served as positive (100% haemolysis) control and cell suspension added PBS served as negative (0% haemolysis) control. The percent haemolysis was calculated using the formula [(Asample-Abaseline)/(Atriton-Abaseline)]×100. The experiment was performed in duplicates.

[1] = tested on: S. epidermidis #1 (5179-R1)
From the text: (§1) Organic phase extract, SPE eluates and HPLC-fractions were screened for antibacterial activity against two strains of Gram-positive and two strains of Gram-negative bacteria; Corynebacterium glutamicum (ATCC 13032), Staphylococcus aureus (ATCC 9144), Pseudomonas aeruginosa #1 (ATCC 27853) and Escherichia coli #1 (ATCC 25922). For extended antimicrobial bioactivity screening, the following bacterial strains were used, three strains of Gram-positive bacteria; S. epidermidis #1 (5179-R1) kindly provided by Holger Rohde, S. epidermidis #2, RP62A (ATCC 35984) and Bacillus subtilis (ATCC 23857) in addition to the Gram-negative P. aeruginosa #2, PA 01 (ATCC 15692, DSM 19880) and E. coli #2, NR 698 (MC4100/ptD4213).
(§2) Cultures stored at -80°C were smeared onto agar plates and cultured for 24 h at 35°C. One colony of each bacterial strain was transferred to 5 ml liquid Müller-Hinton (MH, Difco, Lawrence, KS, USA) medium in a glass tube and left shaking at room temperature overnight at 600 rpm. The cultures of actively growing bacteria (20 μl) were further inoculated in 5 ml MH medium and left shaking for 2 h at room temperature. The antibacterial assays were performed as previously described by. Briefly, the bacterial cultures were diluted with medium to 1.3–1.5 × 10^4 bacteria/ml final concentrations and an aliquot of 50 μl was added to each well in 96-well Nunclon^TM microtiter plates (Nagle Nunc Int., Denmark) preloaded with 50 μl test sample solutions, i.e. extracts, eluates or peptides.
(§3) The test plates were incubated for 24 h at 35°C with optical density (OD595) recorded every hour using an Envision 2103 multilabel reader, controlled by the Wallac Envision manager (PerkinElmer, CT, USA). Antibacterial activity was defined as a sample showing >90% inhibition (as measured by optical density) compared to the negative (growth) controls, consisting of bacteria and water. Oxytetracycline (20 μM) served as a positive (inhibition) control. The minimum inhibitory concentration (MIC) was defined as the lowest concentration of a sample displaying >90% inhibition.
(§4) ACN-phases and SPE eluates were tested with two-fold serial dilutions ranging from 5.0 to 0.005 mg/ml (5.0, 2.5, 1.25, 0.63, 0.31, 0.16, 0.08, 0.04, 0.02, 0.01, 0.005 mg/ml) whereas HPLC-fractions were tested undiluted for antibacterial activity. Pure, native peptides and synthetic peptides (described in section 2.11) were tested for antimicrobial activity in concentrations ranging from 100 to 0.1 μM in two-fold serial dilutions (100, 50, 25, 12.5, 6.25, 3.13, 1.56, 0.78, 0.39, 0.20, 0.10 μM). Antimicrobial assays involving natural peptides (i.e. fractionated natural material) were run only once due to limited quantities, whereas all other assays were run in triplicates.

[2] = tested on: S. epidermidis #2, RP62A (ATCC 35984)
From the text: as §1, §2, §3, §4

[3] = tested on: Escherichia coli #1 (ATCC 25922)
From the text: as §1, §2, §3, §4

[4] = tested on: Corynebacterium glutamicum (ATCC 13032)
From the text: as §1, §2, §3, §4

[5] = tested on: Pseudomonas aeruginosa #1 (ATCC 27853)
From the text: as §1, §2, §3, §4

[6] = tested on: Staphylococcus aureus (ATCC 9144)
From the text: as §1, §2, §3, §4

[7] = tested on: E. coli #2, NR 698 (MC4100/ptD4213)
From the text: as §1, §2, §3, §4

[8] = tested on: Bacillus subtilis (ATCC 23857)
From the text: as §1, §2, §3, §4

[9] = tested on: P. aeruginosa #2, PA 01 (ATCC 15692, DSM 19880)
From the text: as §1, §2, §3, §4

[10] = MH medium, 24 h at 35°C, OD595, >90% inhibition, value of Table 2, triplicates
[11] = MH medium, 24 h at 35°C, OD595, >90% inhibition, value of Table 2, native peptides run once, synthetic in triplicates
[12] = MH medium, 24 h at 35°C, OD595, lowest concentration with >90% inhibition, value of Table 2, native peptides run once, synthetic in triplicates

WGHKLRSSWNKVKHAVKKGAGYASGACRVLGH [EeCentrocin 2 HC]
% haemolysis (human red blood cells; 25.0 μM): 11.7%
% haemolysis (human red blood cells; 50.0 μM): 18.9%
% haemolysis (human red blood cells; 100 μM): 56.3% and 56.4%
MIC S. epidermidis #1 [1, 10]: 3.13 µM
MIC raw data S. epidermidis #1 ([1]; parallel 1 of three): 3.13 µM
MIC raw data S. epidermidis #1 ([1]; parallel 2 of three): 3.13 µM
MIC raw data S. epidermidis #1 ([1]; parallel 3 of three): 1.56 µM
MIC S. epidermidis #2 [2, 10]: 3.13 µM
MIC raw data S. epidermidis #2 ([2]; parallel 1 of three): 3.13 µM
MIC raw data S. epidermidis #2 ([2]; parallel 2 of three): 3.13 µM
MIC raw data S. epidermidis #2 ([2]; parallel 3 of three): 3.13 µM
MIC E. coli #1 [3, 11]: 1.56 µM
MIC raw data E. coli #1 ([3]; parallel 1 of three): 1.56 µM
MIC raw data E. coli #1 ([3]; parallel 2 of three): 0.78 µM
MIC raw data E. coli #1 ([3]; parallel 3 of three): 0.78 µM
MIC C. glutamicum [4, 12]: 0.78 µM
MIC raw data C. glutamicum ([4]; parallel 1 of three): 0.78 µM
MIC raw data C. glutamicum ([4]; parallel 2 of three): 0.78 µM
MIC raw data C. glutamicum ([4]; parallel 3 of three): 0.78 µM
MIC P. aeruginosa #1 [5, 11]: 0.78 µM
MIC raw data P. aeruginosa #1 ([5]; parallel 1 of three): 0.78 µM
MIC raw data P. aeruginosa #1 ([5]; parallel 2 of three): 0.78 µM
MIC raw data P. aeruginosa #1 ([5]; parallel 3 of three): 0.78 µM
MIC S. aureus [6, 12]: 6.25 µM
MIC raw data S. aureus ([6]; parallel 1 of three): 6.25 µM
MIC raw data S. aureus ([6]; parallel 2 of three): 6.25 µM
MIC raw data S. aureus ([6]; parallel 3 of three): 6.25 µM
MIC E. coli #2 [7, 10]: 6.25 µM
MIC raw data E. coli #2 ([7]; parallel 1 of three): 6.25 µM
MIC raw data E. coli #2 ([7]; parallel 2 of three): 3.13 µM
MIC raw data E. coli #2 ([7]; parallel 3 of three): 3.13 µM
MIC B. subtilis ([8]; MH medium, 24 h at 35°C, OD595, lowest concentration with >90% inhibition, value of Table 2, synthetic peptides in triplicates): 6.25 µM
MIC raw data B. subtilis ([8]; parallel 1 of three): 6.25 µM
MIC raw data B. subtilis ([8]; parallel 2 of three): 3.13 µM
MIC raw data B. subtilis ([8]; parallel 3 of three): 3.13 µM
MIC P. aeruginosa #2 [9, 10]: 6.25 µM
MIC raw data P. aeruginosa #2 ([9]; parallel 1 of three): 6.25 µM
MIC raw data P. aeruginosa #2 ([9]; parallel 2 of three): 6.25 µM
MIC raw data P. aeruginosa #2 ([9]; parallel 3 of three): 3.13 µM
